Reference: patent US9358217B2, “Methods for reducing triglyceride, total cholesterol and low density lipoprotein blood levels” (MediciNova, Inc., priority 2013, dated 2016)

Assays:
Format in all cases: in vivo
LDL blood levels = experiment: Total LDL blood levels in human subjects upon MN-001 administration
Experimental: Human subjects were administered various daily amounts of MN-001 and placebo and their total LDL blood levels (mg/dl) measured at various time points.

blood levels of HDL = experiment: Blood levels of HDL upon administration of MN-001; details: human subjects
[1] = system: total cholesterol blood levels; experiment: Total cholesterol blood levels in human subjects upon MN-001 administration
Experimental: Human subjects were administered various daily amounts of MN-001 and placebo and their total cholesterol blood levels (mg/dl) measured at various time points.

[2] = system: triglyceride blood levels; experiment: Triglyceride blood levels in human subjects upon MN-001 administration
Experimental: Human subjects were administered various daily amounts of MN-001 and placebo and their triglyceride blood levels (mg/deciliter or dl) measured at various time points. […] As to the “week 14” time point in Table 1-D, it provides triglyceride levels of follow-up patients after MN-001 administration was stopped at 12 weeks.

[3] = human subjects, various daily amounts, with certain exceptions

## CCCc1c(SCCCOc2ccc(C(C)=O)c(OCCCC(=O)O)c2CCC)ccc(C(C)=O)c1O [MN-001]
LDL blood levels; Table 3-A Asthma Subjects, 500 mg tid (N = 36), Screening
  mean LDL blood level: 113.8 mg/dL
LDL blood levels; Table 3-A Asthma Subjects, 500 mg tid (N = 36), Week 4
  mean LDL blood level: 105.4 mg/dL
LDL blood levels; Table 3-A Asthma Subjects, 750 mg bid (N = 36), Screening
  mean LDL blood level: 100.3 mg/dL
LDL blood levels; Table 3-A Asthma Subjects, 750 mg bid (N = 36), Week 4
  mean LDL blood level: 104.7 mg/dL
LDL blood levels; Table 3-A Asthma Subjects, 750 mg qd (N = 36), Screening
  mean LDL blood level: 115.7 mg/dL
LDL blood levels; Table 3-A Asthma Subjects, 750 mg qd (N = 36), Week 4
  mean LDL blood level: 106.9 mg/dL
LDL blood levels; Table 3-B Interstitial Cystitis Subjects, 500 mg bid (N = 106), Baseline
  mean LDL blood level: 62.6 mg/dL
LDL blood levels; Table 3-B Interstitial Cystitis Subjects, 500 mg bid (N = 106), Week 4
  mean LDL blood level: 54.5 mg/dL
LDL blood levels; Table 3-B Interstitial Cystitis Subjects, 500 mg bid (N = 106), Week 8
  mean LDL blood level: 52.2 mg/dL
LDL blood levels; Table 3-B Interstitial Cystitis Subjects, 500 mg qd (N = 94), Baseline
  mean LDL blood level: 65.8 mg/dL
LDL blood levels; Table 3-B Interstitial Cystitis Subjects, 500 mg qd (N = 94), Week 4
  mean LDL blood level: 60.1 mg/dL
LDL blood levels; Table 3-B Interstitial Cystitis Subjects, 500 mg qd (N = 94), Week 8
  mean LDL blood level: 55.5 mg/dL
LDL blood levels; Table 3-C Healthy Subjects, 1500 mg/day × 10 days (N = 11), Day 11
  mean LDL blood level: 103.0 mg/dL
LDL blood levels; Table 3-C Healthy Subjects, 1500 mg/day × 10 days (N = 11), Screening
  mean LDL blood level: 99.1 mg/dL
LDL blood levels; Table 3-D Asthma Subjects, 500 mg tid (N = 54), Baseline
  mean LDL blood level: 100.2 mg/dL
LDL blood levels; Table 3-D Asthma Subjects, 500 mg tid (N = 54), Week 4
  mean LDL blood level: 99.5 mg/dL
LDL blood levels; Table 3-D Asthma Subjects, 500 mg tid (N = 54), Week 8
  mean LDL blood level: 99.1 mg/dL
LDL blood levels; Table 3-D Asthma Subjects, 500 mg tid (N = 54), Week 12
  mean LDL blood level: 92.5 mg/dL
LDL blood levels; Table 3-D Asthma Subjects, 500 mg tid (N = 54), Week 14 (follow-up, administration stopped at 12 weeks)
  mean LDL blood level: 102.6 mg/dL
LDL blood levels; Table 3-D Asthma Subjects, 750 mg bid (N = 53), Baseline
  mean LDL blood level: 106.3 mg/dL
LDL blood levels; Table 3-D Asthma Subjects, 750 mg bid (N = 53), Week 4
  mean LDL blood level: 102.3 mg/dL
LDL blood levels; Table 3-D Asthma Subjects, 750 mg bid (N = 53), Week 8
  mean LDL blood level: 106.6 mg/dL
LDL blood levels; Table 3-D Asthma Subjects, 750 mg bid (N = 53), Week 12
  mean LDL blood level: 110.9 mg/dL
LDL blood levels; Table 3-D Asthma Subjects, 750 mg bid (N = 53), Week 14 (follow-up, administration stopped at 12 weeks)
  mean LDL blood level: 103.6 mg/dL
LDL blood levels; [3]
  effect on mean LDL blood levels compared to control subjects (placebo): substantial lowering
Blood levels of HDL
  effect on blood levels of HDL: not altered substantially, if at all
[1]; Table 2-A Asthma Subjects, 500 mg tid (N = 36), Screening
  mean total cholesterol blood level: 193.5 mg/dL
[1]; Table 2-A Asthma Subjects, 500 mg tid (N = 36), Week 4
  mean total cholesterol blood level: 183.1 mg/dL
[1]; Table 2-A Asthma Subjects, 750 mg bid (N = 36), Screening
  mean total cholesterol blood level: 180.5 mg/dL
[1]; Table 2-A Asthma Subjects, 750 mg bid (N = 36), Week 4
  mean total cholesterol blood level: 181.6 mg/dL
[1]; Table 2-A Asthma Subjects, 750 mg qd (N = 36), Screening
  mean total cholesterol blood level: 191.5 mg/dL
[1]; Table 2-A Asthma Subjects, 750 mg qd (N = 36), Week 4
  mean total cholesterol blood level: 180.6 mg/dL
[1]; Table 2-B Interstitial Cystitis Subjects, 500 mg bid (N = 106), Baseline
  mean total cholesterol blood level: 174.5 mg/dL
[1]; Table 2-B Interstitial Cystitis Subjects, 500 mg bid (N = 106), Week 4
  mean total cholesterol blood level: 169.8 mg/dL
[1]; Table 2-B Interstitial Cystitis Subjects, 500 mg bid (N = 106), Week 8
  mean total cholesterol blood level: 168.7 mg/dL
[1]; Table 2-B Interstitial Cystitis Subjects, 500 mg qd (N = 94), Baseline
  mean total cholesterol blood level: 173.8 mg/dL
[1]; Table 2-B Interstitial Cystitis Subjects, 500 mg qd (N = 94), Week 4
  mean total cholesterol blood level: 171.5 mg/dL
[1]; Table 2-B Interstitial Cystitis Subjects, 500 mg qd (N = 94), Week 8
  mean total cholesterol blood level: 170.5 mg/dL
[1]; Table 2-C Healthy Subjects, 1500 mg/day × 10 days (N = 11), Day 11
  mean total cholesterol blood level: 167.8 mg/dL
[1]; Table 2-C Healthy Subjects, 1500 mg/day × 10 days (N = 11), Screening
  mean total cholesterol blood level: 176.9 mg/dL
[1]; Table 2-D Asthma Subjects, 500 mg tid (N = 54), Baseline
  mean total cholesterol blood level: 182.5 mg/dL
[1]; Table 2-D Asthma Subjects, 500 mg tid (N = 54), Week 4
  mean total cholesterol blood level: 179.3 mg/dL
[1]; Table 2-D Asthma Subjects, 500 mg tid (N = 54), Week 8
  mean total cholesterol blood level: 176.9 mg/dL
[1]; Table 2-D Asthma Subjects, 500 mg tid (N = 54), Week 12
  mean total cholesterol blood level: 169.6 mg/dL
[1]; Table 2-D Asthma Subjects, 500 mg tid (N = 54), Week 14 (follow-up, administration stopped at 12 weeks)
  mean total cholesterol blood level: 182.8 mg/dL
[1]; Table 2-D Asthma Subjects, 750 mg bid (N = 53), Baseline
  mean total cholesterol blood level: 185.4 mg/dL
[1]; Table 2-D Asthma Subjects, 750 mg bid (N = 53), Week 4
  mean total cholesterol blood level: 181.6 mg/dL
[1]; Table 2-D Asthma Subjects, 750 mg bid (N = 53), Week 8
  mean total cholesterol blood level: 187.3 mg/dL
[1]; Table 2-D Asthma Subjects, 750 mg bid (N = 53), Week 12
  mean total cholesterol blood level: 192.4 mg/dL
[1]; Table 2-D Asthma Subjects, 750 mg bid (N = 53), Week 14 (follow-up, administration stopped at 12 weeks)
  mean total cholesterol blood level: 182.6 mg/dL
[1]; [3]
  effect on mean total cholesterol blood levels compared to control subjects (placebo): substantial lowering
[2]; Table 1-A Asthma Subjects, 500 mg tid (N = 36), Screening
  mean triglyceride blood level: 109.5 mg/dL
[2]; Table 1-A Asthma Subjects, 500 mg tid (N = 36), Week 4
  mean triglyceride blood level: 91.6 mg/dL
[2]; Table 1-A Asthma Subjects, 750 mg bid (N = 36), Screening
  mean triglyceride blood level: 125.5 mg/dL
[2]; Table 1-A Asthma Subjects, 750 mg bid (N = 36), Week 4
  mean triglyceride blood level: 98.5 mg/dL
[2]; Table 1-A Asthma Subjects, 750 mg qd (N = 36), Screening
  mean triglyceride blood level: 112.2 mg/dL
[2]; Table 1-A Asthma Subjects, 750 mg qd (N = 36), Week 4
  mean triglyceride blood level: 117.2 mg/dL
[2]; Table 1-B Interstitial Cystitis Subjects, 500 mg bid (N = 106), Baseline
  mean triglyceride blood level: 135.7 mg/dL
[2]; Table 1-B Interstitial Cystitis Subjects, 500 mg bid (N = 106), Week 4
  mean triglyceride blood level: 106.7 mg/dL
[2]; Table 1-B Interstitial Cystitis Subjects, 500 mg bid (N = 106), Week 8
  mean triglyceride blood level: 110.7 mg/dL
[2]; Table 1-B Interstitial Cystitis Subjects, 500 mg qd (N = 94), Baseline
  mean triglyceride blood level: 136.1 mg/dL
[2]; Table 1-B Interstitial Cystitis Subjects, 500 mg qd (N = 94), Week 4
  mean triglyceride blood level: 109.5 mg/dL
[2]; Table 1-B Interstitial Cystitis Subjects, 500 mg qd (N = 94), Week 8
  mean triglyceride blood level: 124.7 mg/dL
[2]; Table 1-C Healthy Subjects, 1500 mg/day × 10 days (N = 11), Day 11
  mean triglyceride blood level: 87.5 mg/dL
[2]; Table 1-C Healthy Subjects, 1500 mg/day × 10 days (N = 11), Screening
  mean triglyceride blood level: 145.4 mg/dL
[2]; Table 1-D Asthma Subjects, 500 mg tid (N = 54), Baseline
  mean triglyceride blood level: 159.4 mg/dL
[2]; Table 1-D Asthma Subjects, 500 mg tid (N = 54), Week 4
  mean triglyceride blood level: 112.5 mg/dL
[2]; Table 1-D Asthma Subjects, 500 mg tid (N = 54), Week 8
  mean triglyceride blood level: 132.4 mg/dL
[2]; Table 1-D Asthma Subjects, 500 mg tid (N = 54), Week 12
  mean triglyceride blood level: 147.7 mg/dL
[2]; Table 1-D Asthma Subjects, 500 mg tid (N = 54), Week 14 (follow-up, administration stopped at 12 weeks)
  mean triglyceride blood level: 134.1 mg/dL
[2]; Table 1-D Asthma Subjects, 750 mg bid (N = 53), Baseline
  mean triglyceride blood level: 117.0 mg/dL
[2]; Table 1-D Asthma Subjects, 750 mg bid (N = 53), Week 4
  mean triglyceride blood level: 94.1 mg/dL
[2]; Table 1-D Asthma Subjects, 750 mg bid (N = 53), Week 8
  mean triglyceride blood level: 101.4 mg/dL
[2]; Table 1-D Asthma Subjects, 750 mg bid (N = 53), Week 12
  mean triglyceride blood level: 114.0 mg/dL
[2]; Table 1-D Asthma Subjects, 750 mg bid (N = 53), Week 14 (follow-up, administration stopped at 12 weeks)
  mean triglyceride blood level: 104.6 mg/dL
[2]; Table 1-D, week 14, after administration was stopped at 12 weeks
  triglyceride levels during follow-up period compared with a control group: continued their downward trend
[2]; [3]
  effect on mean triglyceride blood levels compared to control subjects (placebo): substantial lowering
